Assay results: patent publication US8178577B2, “Tricyclic derivatives as potent and selective histone deacetylase inhibitors” (Shenzhen Chipscreen Biosciences Ltd., priority 2008, dated 2012)

Key:
[1] = tested on: total HDAC enzyme; assay: In vitro inhibition of total HDAC enzyme activity (BIOMOL HDAC Fluorimetric Assay/Drug Discovery Kit, HeLa extract); type: biochemical
Description: Measurement of In Vitro Inhibition of Total HDAC Enzyme Activity:
The in vitro inhibition of total HDAC enzyme was determined by HDAC Fluorimetric Assay/Drug Discovery Kit (BIOMOL) according to manufacture's instruction. • 1. Add Assay buffer, diluted trichostatin A or test inhibitor to appropriate wells of the microtiter plate. Following table lists examples of various assay types and the additions required for each test.
• 2. Add diluted HeLa extract or other HDAC sample to all wells except those that are to be “No Enzyme Controls” (Blank). • 3. Allow diluted Fluor de LYS™ Substrate and the samples in the microtiter plate to equilibrate to assay temperature (25° C.). • 4. Initiate HDAC reactions by adding diluted substrate (25 μl) to each well and mixing thoroughly. • 5. Allow HDAC reactions to proceed for desired length of time and then stop them by addition of Fluor de Lys™ Developer (50 μl). Incubate plate at room temperature (25° C.) for 10-15 min. • 6. Read samples in a microtiter-plate reading fluorimeter capable of excitation at a wavelength in the range 350-380 nm and detection of emitted light in the range 440-460 nm. Measurement of In Vivo Inhibition of HDAC Subtype Activity: […]

[2] = target: T1, HDAC3 (Homo sapiens, UniProt O15379); assay: gdf11 reporter gene assay in HeLa cells; type: cell-based; settings: HeLa, 24 h, read-out: % of SAHA Response for HDAC3 at 10 μM (gdf11 reporter gene)
T1 construct: endogenous in cells; host or cells: HeLa
T1 sequence (O15379 whole entry): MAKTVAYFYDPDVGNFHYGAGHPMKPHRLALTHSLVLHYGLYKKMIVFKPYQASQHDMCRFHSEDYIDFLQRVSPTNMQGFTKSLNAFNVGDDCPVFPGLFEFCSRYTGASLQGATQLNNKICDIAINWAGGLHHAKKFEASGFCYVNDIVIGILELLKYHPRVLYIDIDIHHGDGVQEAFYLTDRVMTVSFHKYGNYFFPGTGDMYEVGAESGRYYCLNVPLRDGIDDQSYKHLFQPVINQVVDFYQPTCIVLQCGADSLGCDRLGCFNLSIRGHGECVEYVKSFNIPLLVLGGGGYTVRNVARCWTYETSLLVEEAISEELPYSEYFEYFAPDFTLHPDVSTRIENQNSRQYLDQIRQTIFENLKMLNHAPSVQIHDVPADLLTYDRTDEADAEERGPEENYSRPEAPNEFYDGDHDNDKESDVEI
T1 sequence (Q9Y618 whole entry partner): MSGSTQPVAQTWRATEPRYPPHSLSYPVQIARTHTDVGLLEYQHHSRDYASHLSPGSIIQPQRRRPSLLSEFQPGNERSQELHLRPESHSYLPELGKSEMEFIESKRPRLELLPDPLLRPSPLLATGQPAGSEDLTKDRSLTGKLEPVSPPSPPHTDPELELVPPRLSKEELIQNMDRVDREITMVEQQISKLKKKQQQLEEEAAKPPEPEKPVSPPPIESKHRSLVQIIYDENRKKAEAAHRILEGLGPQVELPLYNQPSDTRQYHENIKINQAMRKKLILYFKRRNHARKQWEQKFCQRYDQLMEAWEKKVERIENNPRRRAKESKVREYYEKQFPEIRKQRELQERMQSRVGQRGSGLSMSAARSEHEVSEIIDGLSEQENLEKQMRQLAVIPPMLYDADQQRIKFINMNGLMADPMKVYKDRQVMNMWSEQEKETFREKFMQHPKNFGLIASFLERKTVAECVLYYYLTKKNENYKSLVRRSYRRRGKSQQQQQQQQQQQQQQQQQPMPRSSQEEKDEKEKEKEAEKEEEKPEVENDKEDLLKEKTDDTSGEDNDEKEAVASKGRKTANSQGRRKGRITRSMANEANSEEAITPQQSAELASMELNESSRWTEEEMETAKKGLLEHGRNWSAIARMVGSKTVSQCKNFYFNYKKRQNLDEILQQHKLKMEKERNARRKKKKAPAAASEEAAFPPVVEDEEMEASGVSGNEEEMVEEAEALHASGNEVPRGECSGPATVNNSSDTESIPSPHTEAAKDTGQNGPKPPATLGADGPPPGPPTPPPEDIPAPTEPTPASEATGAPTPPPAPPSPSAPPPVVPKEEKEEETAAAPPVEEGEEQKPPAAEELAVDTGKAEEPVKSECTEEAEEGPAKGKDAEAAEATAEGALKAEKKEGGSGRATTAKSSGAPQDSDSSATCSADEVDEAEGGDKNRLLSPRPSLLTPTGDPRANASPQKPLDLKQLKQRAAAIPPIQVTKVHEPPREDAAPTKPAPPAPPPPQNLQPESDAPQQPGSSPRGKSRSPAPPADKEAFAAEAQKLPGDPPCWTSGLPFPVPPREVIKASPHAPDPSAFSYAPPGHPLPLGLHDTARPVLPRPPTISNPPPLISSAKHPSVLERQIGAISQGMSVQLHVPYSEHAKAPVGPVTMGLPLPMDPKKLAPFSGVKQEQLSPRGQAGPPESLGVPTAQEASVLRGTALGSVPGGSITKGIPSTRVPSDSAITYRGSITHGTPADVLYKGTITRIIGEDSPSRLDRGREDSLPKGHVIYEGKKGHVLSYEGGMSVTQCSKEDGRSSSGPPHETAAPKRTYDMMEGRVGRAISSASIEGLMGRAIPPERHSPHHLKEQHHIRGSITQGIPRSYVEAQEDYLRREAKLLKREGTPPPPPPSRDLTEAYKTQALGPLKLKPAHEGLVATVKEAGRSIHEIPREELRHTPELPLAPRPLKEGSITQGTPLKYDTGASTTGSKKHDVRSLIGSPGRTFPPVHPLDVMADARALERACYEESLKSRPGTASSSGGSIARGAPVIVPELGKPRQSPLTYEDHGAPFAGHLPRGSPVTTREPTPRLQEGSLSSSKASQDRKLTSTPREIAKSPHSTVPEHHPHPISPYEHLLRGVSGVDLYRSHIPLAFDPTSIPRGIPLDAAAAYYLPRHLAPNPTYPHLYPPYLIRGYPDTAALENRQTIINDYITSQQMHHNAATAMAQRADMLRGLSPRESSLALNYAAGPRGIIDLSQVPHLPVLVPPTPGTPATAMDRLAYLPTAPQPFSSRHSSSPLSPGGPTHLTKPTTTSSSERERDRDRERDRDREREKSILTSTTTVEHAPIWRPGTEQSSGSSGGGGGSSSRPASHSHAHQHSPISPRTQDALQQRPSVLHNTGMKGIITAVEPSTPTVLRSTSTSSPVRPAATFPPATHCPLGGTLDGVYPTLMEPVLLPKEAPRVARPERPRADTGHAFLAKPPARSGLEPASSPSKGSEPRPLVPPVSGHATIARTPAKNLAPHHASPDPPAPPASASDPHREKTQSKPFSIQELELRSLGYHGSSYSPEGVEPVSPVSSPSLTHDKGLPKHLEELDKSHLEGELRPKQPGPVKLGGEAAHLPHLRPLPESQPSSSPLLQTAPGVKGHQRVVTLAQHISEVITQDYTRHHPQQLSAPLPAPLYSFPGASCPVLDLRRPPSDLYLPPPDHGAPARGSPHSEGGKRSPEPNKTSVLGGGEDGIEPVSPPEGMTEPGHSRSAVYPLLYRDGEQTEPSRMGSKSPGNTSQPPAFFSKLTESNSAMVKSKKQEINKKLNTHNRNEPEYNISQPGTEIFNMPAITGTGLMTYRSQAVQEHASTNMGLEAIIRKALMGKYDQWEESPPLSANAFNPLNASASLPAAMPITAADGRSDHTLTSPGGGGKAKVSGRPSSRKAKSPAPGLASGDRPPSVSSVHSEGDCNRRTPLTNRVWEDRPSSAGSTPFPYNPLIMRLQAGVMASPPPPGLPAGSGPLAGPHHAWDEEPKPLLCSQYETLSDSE
Description: (§1) HDAC subtype selectivity inhibition assay of tested compounds was carried out by several reporter gene assays experiments. Briefly, HeLa cells were seeded in 96-well plates the day before transfection to give a confluence of 50-80%. Cells were transfected with one of reporter gene plasmids containing a promoter sequences or response elements upstream of a luciferase gene construct using FuGene6 transfection reagent according to the manufacturer's instructions (Roche). The promoter or response elements including p21-promoter, gdf11-promoter, serum response element (SRE), MEF-binding element were fused upstream to the luciferase gene reporter construct. For normalizing the transfection efficiency, a GFP expression plasmid was cotransfected. Cells were allowed to express protein for 24 hours followed by addition of individual compounds or the vehicle (DMSO). 24 hours later the cells were harvested, and the luciferase assays were performed using the luciferase assay kit according to the manufacturer's instructions (Promega). To normalize the data from the luciferase assays, β-galactosidase activity from transfected cells was measured using a kit (Promega) as instructed by the manufacturer.

[3] = tested on: HeLa; assay: Cell proliferation (MTS), HeLa; type: cell-based; settings: Homo sapiens, 72 hours
Description: (§2) Measurement of In Vivo Cell Proliferation:
(§3) Tumor cells were trypsinized and plated into 96-well plates at 3,000 per well and incubated in complete medium with 10% FBS for 24 hours. Compounds were added over a final concentration range of 100 μmol/L to 100 nmol/L in 0.1% DMSO and incubated for 72 hours in complete medium. The effects on proliferation were determined by addition of MTS reagent (Promega) according to the instruction, incubation for 2 hours at 37° C. in CO2 incubator, and record the absorbance at 490 nm using an ELISA plate reader.

[4] = tested on: A549; assay: Cell proliferation (MTS), A549; type: cell-based; settings: Homo sapiens, 72 hours
Description: as §2, §3

[5] = tested on: HDAC Class I; assay: P21 reporter gene assay in HeLa cells; type: cell-based; settings: relative to SAHA, 24 hours
Description: as §1

% of Inhibition on total HDAC enzyme at 30 μM [1] [%]	activation at 10 µM [2] [%]	GI50 [3] [µM]	GI50 [4] [µM]	Compound	% of SAHA Response for HDAC Class I at 10 μM (P21 reporter gene) [5] [%]
50	26	22.9	18.2	Nc1cc(F)ccc1NC(=O)CCCCCNC(=O)C=C1c2ccccc2-c2ccccc21 [Example 12, 6-(2-(9H-fluoren-9-ylidene)acetamido)-N-(2-amino-4-fluorophenyl)hexanamide]	39
50	66	8.32	4.9	Nc1ccccc1NC(=O)CCCCCNC(=O)C=C1c2ccccc2-c2ccccc21 [Example 13, 6-(2-(9H-fluoren-9-ylidene)acetamido)-N-(2-aminophenyl)hexanamide]	133
